Patent US9221838B2, “Inhibitors of AKT activity” (ALMAC DISCOVERY LIMITED, priority 2009, dated 2015)

Columns and labels:
Type in all cases: biochemical
AKT1 = target: T1, AKT1 (Homo sapiens, UniProt P31749); assay: AKT Kinase Assay (IMAP fluorescent polarisation) vs AKT1
T1 construct: purchased SignalChem
Protocol: (§1) Testing of the compounds was performed using an AKT Kinase Assay:
(§2) Activated AKT isoforms 1, 2 and 3 were assayed utilising a 5′ FAM Crosstide (Seq. GRPRTSSFAEG-OH)(SEO ID NO: 1). The extent of kinase phosphorylation was determined by fluorescent polarisation using IMAP progressive binding reagent, which introduces binding beads which allow the reagent to specifically bind to phosphate residues via covalent co-ordination complex bonds.
(§3) iMAP binding solution stops Crosstide/kinase interaction and specifically binds phosphorylated substrates. The degree of phosphorylation is determined by fluorescent polarisation (excitation 485 nm; emission 528 nm) or the reduction in speed of rotation of the excited substrate.
(§4) The following materials were used in the assay: • a) Activated AKT isoforms (SignalChem.) dissolved in Complete Reaction buffer at a pre-determined concentration selected so that the assay was carried out in the linear range. • b) AKT substrate peptide: FAM Crosstide (R7110) Molecular Devices, diluted in complete reaction buffer. • c) iMAP Progressive Screening Express Kit (R8127) Molecular Devices • d) Complete Reaction Buffer containing 0.1% BSA, 10 mM Tris-HCl, 10 mM MgCl2, 0.05% NaN3 and 0.01% phosphate free BSA, 1 mM DTT • e) Progressive Binding Solution containing 75% Buffer A, 25% Buffer B and low volume Binding Reagent which contains the binding entity for the assay • f) ATP diluted in complete reaction buffer • g) Black polystyrene 384 well assay plates (Nunc). • h) Biotek Synergy 4 Hybrid Plate reader.
(§5) 5 μl of test compound was dissolved in DMSO (Sigma Aldrich) and serially diluted in complete reaction buffer to give a fourteen point half log dose response and plated into 384 well black plates. The compound was incubated at room temperature with activated AKT isoform ([…] ) at the pre-determined concentration, for 45 minutes.
(§6) 2.5 μl of ATP solution mixed with 2.5 μl of AKT substrate peptide (FAM Crosstide (R7110) Molecular Devices) were dispensed into each well and the plate centrifuged at 1000 rpm for 20 seconds to ensure homogenous mixing of reagents. The reaction mix was incubated in the dark for one hour at room temperature.
(§7) The kinase reaction was stopped by the addition of Progressive Binding Solution and the mixture allowed to equilibrate for one hour in the dark, at room temperature.
(§8) The fluorescent polarisation generated in each well was determined using a […] Synergy 4 Hybrid plate reader. In brief, each reaction solution was excited at 485 nm with the emission measured at 528 nm in both the parallel and perpendicular pathway.
(§9) The polarisation value generated in each well was calculated by Gen5 software (Biotek) and the % inhibition of kinase activity compared to vehicle control was calculated via GraphPad Prism. IC50 values for each compound were calculated by non-linear regression analysis using Prism software.
(§10) All plates were internally controlled by two methods. Firstly, by calculating the signal:noise ratio; based on kinase polarisation without inhibitor and polarisation generated by complete reaction buffer in the absence of activated kinase. Secondly by determining IC50 values generated by known inhibitors of the AKT isoforms.

AKT3 = target: T2, AKT3 (Homo sapiens, UniProt Q9Y243); assay: AKT Kinase Assay (IMAP fluorescent polarisation) vs AKT3
T2 construct: purchased SignalChem
Protocol: as §1, §2, §3, §4, §5, §6, §7, §8, §9, §10

AKT2 = target: T3, AKT2 (Homo sapiens, UniProt P31751); assay: AKT Kinase Assay (IMAP fluorescent polarisation) vs AKT2
T3 construct: purchased SignalChem
Protocol: as §1, §2, §3, §4, §5, §6, §7, §8, §9, §10

T2 sequence (Q9Y243 whole entry): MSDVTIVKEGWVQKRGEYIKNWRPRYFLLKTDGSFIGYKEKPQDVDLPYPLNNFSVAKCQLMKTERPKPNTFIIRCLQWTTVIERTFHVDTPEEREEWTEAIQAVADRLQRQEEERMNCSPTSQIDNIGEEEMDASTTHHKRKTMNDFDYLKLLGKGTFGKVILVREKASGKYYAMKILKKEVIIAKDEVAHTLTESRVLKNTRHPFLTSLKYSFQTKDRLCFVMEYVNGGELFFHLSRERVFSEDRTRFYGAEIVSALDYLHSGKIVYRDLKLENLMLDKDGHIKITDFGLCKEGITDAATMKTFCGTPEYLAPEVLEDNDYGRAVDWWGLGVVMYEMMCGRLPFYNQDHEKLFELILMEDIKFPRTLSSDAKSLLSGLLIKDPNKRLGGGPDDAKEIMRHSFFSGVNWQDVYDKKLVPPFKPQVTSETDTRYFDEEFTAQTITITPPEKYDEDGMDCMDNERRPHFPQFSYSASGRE
T3 sequence (P31751 whole entry): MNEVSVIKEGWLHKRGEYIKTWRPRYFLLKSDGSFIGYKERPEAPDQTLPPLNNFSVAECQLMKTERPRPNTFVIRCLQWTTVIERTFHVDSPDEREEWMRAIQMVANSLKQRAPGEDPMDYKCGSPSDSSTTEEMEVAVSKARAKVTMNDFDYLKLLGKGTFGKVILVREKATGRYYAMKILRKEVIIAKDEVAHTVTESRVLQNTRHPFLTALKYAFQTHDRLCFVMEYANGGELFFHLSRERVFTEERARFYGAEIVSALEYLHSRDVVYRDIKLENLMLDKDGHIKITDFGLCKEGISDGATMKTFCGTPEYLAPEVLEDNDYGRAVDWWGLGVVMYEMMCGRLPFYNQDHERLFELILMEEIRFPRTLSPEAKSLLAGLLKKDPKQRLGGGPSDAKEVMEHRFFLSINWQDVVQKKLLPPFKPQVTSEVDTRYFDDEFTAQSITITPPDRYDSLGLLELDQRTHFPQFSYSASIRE
T1 sequence (P31749 whole entry): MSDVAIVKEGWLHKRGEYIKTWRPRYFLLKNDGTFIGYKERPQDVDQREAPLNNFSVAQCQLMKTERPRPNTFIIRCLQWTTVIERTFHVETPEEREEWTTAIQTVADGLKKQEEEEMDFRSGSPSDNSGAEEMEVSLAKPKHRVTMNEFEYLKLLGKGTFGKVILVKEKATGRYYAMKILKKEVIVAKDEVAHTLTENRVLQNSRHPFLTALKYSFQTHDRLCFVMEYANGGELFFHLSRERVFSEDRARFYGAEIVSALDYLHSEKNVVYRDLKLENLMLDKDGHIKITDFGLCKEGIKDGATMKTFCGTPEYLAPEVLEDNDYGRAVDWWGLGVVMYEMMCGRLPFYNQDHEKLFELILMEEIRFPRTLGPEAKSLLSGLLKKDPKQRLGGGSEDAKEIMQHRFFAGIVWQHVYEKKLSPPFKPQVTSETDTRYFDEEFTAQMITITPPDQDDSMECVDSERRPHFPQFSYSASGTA

| IC50 (AKT1) [nM] | IC50 (AKT3) [nM] | IC50 (AKT2) [nM] | Structure (SMILES) |
| --- | --- | --- | --- |
| 100 to 1000 | 1000 to 10000 | 100 to 1000 | N#CCCCN1C(=O)COc2nc(-c3ccc(C4(N)CCC4)cc3)c(-c3ccccc3)cc21 [Example 64, 4-(6-(4-(1-aminocyclobutyl)phenyl)-2-oxo-7-phenyl-2,3-dihydro-1H-pyrido[2,3-b][1,4]oxazin-1-yl)butanenitrile] |
| 100 to 1000 | > 10000 | > 10000 | NC1(c2ccc(-c3nc4c(cc3-c3ccccc3)-n3c(nnc3-c3ccccn3)CO4)cc2)CCC1 [Example 130, 1-(4-(8-phenyl-1-(pyridin-2-yl)-4H-pyrido[2,3-b][1,2,4]triazolo[4,3-d][1,4]oxazin-7-yl)phenyl)cyclobutanamine] |
| 1000 to 10000 | 1000 to 10000 | 1000 to 10000 | CN(C)c1nnc2n1-c1cc(-c3ccccc3)c(-c3ccc(C4(N)CCC4)cc3)nc1OC2 [Example 116, 7-(4-(1-aminocyclobutyl)phenyl)-N,N-dimethyl-8-phenyl-4H-pyrido[2,3-b][1,2,4]triazolo[4,3-d][1,4]oxazin-1-amine] |
| 100 to 1000 | > 10000 | 100 to 1000 | NC1(c2ccc(-c3nc4c(cc3-c3ccccc3)N(CCO)C(=O)CO4)cc2)CCC1 [Example 68, 6-(4-(1-aminocyclobutyl)phenyl)-1-(2-hydroxyethyl)-7-phenyl-1H-pyrido[2,3-b][1,4]oxazin-2(3H)-one] |
| 1000 to 10000 | > 10000 | 100 to 1000 | CN1c2cc(-c3ccccc3)c(-c3ccc(C4(N)CCC4)cc3)nc2OCS1(=O)=O [Example 73, 6-(4-(1-aminocyclobutyl)phenyl)-1-methyl-7-phenyl-1H-pyrido[3,2-e][1,3,4]oxathiazine 2,2-dioxide] |
| 100 to 1000 | 1000 to 10000 | 1000 to 10000 | NC1(c2ccc(-c3nc4c(cc3-c3ccccc3)-n3c(nnc3-c3ccccc3)CO4)cc2)CCC1 [Example 129, 1-(4-(1,8-diphenyl-4H-pyrido[2,3-b][1,2,4]triazolo[4,3-d][1,4]oxazin-7-yl)phenyl)cyclobutanamine] |
| ≤ 100 | 1000 to 10000 | 1000 to 10000 | NC1(c2ccc(-c3nc4c(cc3-c3ccccc3)-n3c(CO)nnc3CO4)cc2)CCC1 [Example 107] |
| 100 to 1000 | 1000 to 10000 | 1000 to 10000 | NC1(c2ccc(-c3nc4c(cc3-c3ccccc3)-n3c(Br)nnc3CO4)cc2)CCC1 [Example 92, 1-(4-(1-bromo-8-phenyl-4H-pyrido[2,3-b][1,2,4]triazolo[4,3-d][1,4]oxazin-7-yl)phenyl)cyclobutanamine] |
| 100 to 1000 | 1000 to 10000 | 1000 to 10000 | NC1(c2ccc(-c3nc4c(cc3-c3ccccc3)-n3c(nnc3CC(F)(F)F)CO4)cc2)CCC1 [Example 118, 1-(4-(8-phenyl-1-(2,2,2-trifluoroethyl)-4H-pyrido[2,3-b][1,2,4]triazolo[4,3-d][1,4]oxazin-7-yl)phenyl)cyclobutanamine] |

Further lines, the compound ahead of its results:

| Structure (SMILES) | IC50 (AKT1) [nM] | IC50 (AKT3) [nM] | IC50 (AKT2) [nM] |
| --- | --- | --- | --- |
| CN1C(=O)NCc2nc(-c3ccc(C4(N)CCC4)cc3)c(-c3ccccc3)cc21 [Example 108, 6-(4-(1-aminocyclobutyl)phenyl)-1-methyl-7-phenyl-3,4-dihydropyrido[3,2-d]pyrimidin-2(1H)-one] | 100 to 1000 | 1000 to 10000 | 100 to 1000 |
| CO/N=C1\CCCc2nc(-c3ccc(C4(N)CCC4)cc3)c(-c3ccccc3)cc21 [Example 3, 2-(4-(1-aminocyclobutyl)phenyl)-3-phenyl-7,8-dihydroquinolin-5(6H)-one O-methyl oxime] | 1000 to 10000 | > 10000 | > 10000 |
| CCN1CCc2nc(-c3ccc(C4(N)CCC4)cc3)c(-c3ccccc3)cc2C1 [Example 27, 1-(4-(6-ethyl-3-phenyl-5,6,7,8-tetrahydro-1,6-naphthyridin-2-yl)phenyl)cyclobutanamine] | 1000 to 10000 | > 10000 | > 10000 |
| NC1(c2ccc(-c3nc4c(cc3-c3ccccc3)C(=O)NCC4)cc2)CCC1 [Example 22, 2-(4-(1-aminocyclobutyl)phenyl)-3-phenyl-7,8-dihydro-1,6-naphthyridin-5(6H)-one] | ≤ 100 | > 10000 | 1000 to 10000 |
| NC1(c2ccc(-c3nc4c(cc3-c3ccccc3)C(=O)CCC4)cc2)CCC1 [Example 1, 2-(4-(1-aminocyclobutyl)phenyl)-3-phenyl-7,8-dihydroquinolin-5(6H)-one] | 1000 to 10000 | > 10000 | 1000 to 10000 |
| NC1(c2ccc(-c3nc4c(cc3-c3ccccc3)N(c3cccnc3)S(=O)(=O)CO4)cc2)CCC1 [Example 74, 6-(4-(1-aminocyclobutyl)phenyl)-7-phenyl-1-(pyridin-3-yl)-1H-pyrido[3,2-e][1,3,4]oxathiazine 2,2-dioxide] | 1000 to 10000 | > 10000 | 1000 to 10000 |
| CN1CCC(=O)N(C)c2cc(-c3ccccc3)c(-c3ccc(C4(N)CCC4)cc3)nc21 [Example 111, 7-(4-(1-aminocyclobutyl)phenyl)-1,5-dimethyl-8-phenyl-4,5-dihydro-1H-pyrido[2,3-b][1,4]diazepin-2(3H)-one] | 1000 to 10000 | > 10000 | 1000 to 10000 |
| NCc1ccc(-c2nc3c(cc2-c2ccccc2)N(CC(F)(F)F)C(=O)CO3)cc1 [Example 146, 6-(4-(Aminomethyl)phenyl)-7-phenyl-1-(2,2,2-trifluoroethyl)-1H-pyrido[2,3-b][1,4]oxazin-2(3H)-one] | 1000 to 10000 | > 10000 | 100 to 1000 |
| NC1(c2ccc(-c3nc4c(cc3-c3ccccc3)C(=O)CCCC4)cc2)CCC1 [Example 20, 2-(4-(1-aminocyclobutyl)phenyl)-3-phenyl-6,7,8,9-tetrahydro-5H-cyclohepta[b]pyridin-5-one] | 100 to 1000 | > 10000 | 1000 to 10000 |
| CNc1[nH]nc2c1CCc1nc(-c3ccc(C4(N)CCC4)cc3)c(-c3ccccc3)cc1-2 [Example 11, 7-(4-(1-aminocyclobutyl)phenyl)-N-methyl-8-phenyl-4,5-dihydro-2H-pyrazolo[3,4-f]quinolin-3-amine] | 100 to 1000 | > 10000 | 100 to 1000 |
| CN1C(=O)COc2nc(-c3ccc(C4(N)CCC4)cc3)c(CC3CC3)cc21 [Example 133, 6-(4-(1-aminocyclobutyl)phenyl)-7-(cyclopropylmethyl)-1-methyl-1H-pyrido[2,3-b][1,4]oxazin-2(3H)-one] | 1000 to 10000 | > 10000 | > 10000 |
| COCC1Oc2nc(-c3ccc(C4(N)CCC4)cc3)c(-c3ccccc3)cc2N(CC#N)C1=O (stereo not drawn) [Example 95, 2-(6-(4-(1-aminocyclobutyl)phenyl)-3-(methoxymethyl)-2-oxo-7-phenyl-2,3-dihydro-1H-pyrido[2,3-b][1,4]oxazin-1-yl)acetonitrile] | 100 to 1000 | > 10000 | 100 to 1000 |
| C[C@H]1Oc2nc(-c3ccc(C4(N)CCC4)cc3)c(-c3ccccc3)cc2N(C)C1=O [Example 94, (R)-6-(4-(1-aminocyclobutyl)phenyl)-1,3-dimethyl-7phenyl-1H-pyrido[2,3-b][1,4]oxazin-2(3H)-one] | 100 to 1000 | > 10000 | 1000 to 10000 |
| NC1(c2ccc(-c3nc4c(cc3-c3ccccc3)/C(=N/O)CCC4)cc2)CCC1 [Example 2, 2-(4-(1-aminocyclobutyl)phenyl)-3-phenyl-7,13-dihydroquinolin-5(6H)-one oxime] | 100 to 1000 | > 10000 | 1000 to 10000 |
| CC(CO)(CO)CN1C(=O)COc2nc(-c3ccc(C4(N)CCC4)cc3)c(-c3ccccc3)cc21 [Example 106, 6-(4-(1-aminocyclobutyl)phenyl)-1-(3-hydroxy-2-(hydroxymethyl)-2-methylpropyl)-7-phenyl-1H-pyrido[2,3-b][1,4]oxazin-2(3H)-one] | 100 to 1000 | 1000 to 10000 | 100 to 1000 |
| N#CCN1CCOc2nc(-c3ccc(C4(N)CCC4)cc3)c(-c3ccccc3)cc21 [Example 43, 2-(6-(4-(1-aminocyclobutyl)phenyl)-7-phenyl-2,3-dihydro-1H-pyrido[2,3-b][1,4]oxazin-1-yl)acetonitrile] | 100 to 1000 | > 10000 | ≤ 100 |
